According to PMC8385029 (Scientific Reports, 2021):
One block for each molecule: values may come before it.

Legend:
[1] = target: T1, SyAcnB (Synechocystis sp. PCC 6803 aconitase B) (Synechocystis sp. PCC 6803, UniProt P74582); assay: cis-aconitate formation, A240; type: biochemical; details: read-out: % residual activity at 5 mM
T1 construct: gene acnB; full-length, synthetic gene in pGEX6P-1 (BamHI-XhoI), GST tag (elution with glutathione, no cleavage described), E. coli DH5alpha
T1 sequence (P74582 1-868): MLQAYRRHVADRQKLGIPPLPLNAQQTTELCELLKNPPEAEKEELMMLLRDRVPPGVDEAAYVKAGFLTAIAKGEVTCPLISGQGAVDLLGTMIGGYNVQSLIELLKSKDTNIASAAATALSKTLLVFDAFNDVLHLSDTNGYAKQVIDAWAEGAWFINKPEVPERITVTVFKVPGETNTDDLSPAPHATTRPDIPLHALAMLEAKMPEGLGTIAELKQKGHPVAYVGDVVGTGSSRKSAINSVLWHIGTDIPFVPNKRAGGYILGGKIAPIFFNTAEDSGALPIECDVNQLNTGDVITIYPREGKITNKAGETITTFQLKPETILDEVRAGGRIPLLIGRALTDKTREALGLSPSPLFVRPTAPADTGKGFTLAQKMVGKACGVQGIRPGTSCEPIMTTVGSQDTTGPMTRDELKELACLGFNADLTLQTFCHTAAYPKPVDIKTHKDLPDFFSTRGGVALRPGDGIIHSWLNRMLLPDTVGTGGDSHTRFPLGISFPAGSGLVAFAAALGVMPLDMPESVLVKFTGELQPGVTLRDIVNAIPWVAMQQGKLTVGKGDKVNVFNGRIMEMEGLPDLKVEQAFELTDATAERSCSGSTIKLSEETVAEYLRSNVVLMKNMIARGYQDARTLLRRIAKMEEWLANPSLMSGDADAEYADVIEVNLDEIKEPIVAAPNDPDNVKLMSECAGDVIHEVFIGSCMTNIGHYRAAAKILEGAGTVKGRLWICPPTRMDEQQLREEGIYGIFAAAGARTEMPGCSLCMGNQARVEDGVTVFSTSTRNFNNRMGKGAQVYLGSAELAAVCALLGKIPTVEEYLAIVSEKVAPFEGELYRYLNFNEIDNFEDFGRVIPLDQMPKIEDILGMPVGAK

purified protein = substrate: O=C(O)CC(O)(CC(=O)O)C(=O)O; assay: purified protein; details: Tris-HCl pH 7.7, 45 °C; reactivated holo-enzyme
[2] = substrate: O=C(O)CC(C(=O)O)C(O)C(=O)O; assay: cis-aconitate formation, A240; type: biochemical, Synechocystis sp. PCC 6803; details: Tris-HCl pH 8.0, 53 °C; reactivated holo-enzyme; DL-isocitrate used

remaining activity at 5000 µM [1]: 72%
Molecule: O=C(O)CCC(=O)C(=O)O [2-OG]

remaining activity at 5000 µM [1]: 84%
Molecule: N[C@@H](CC(=O)O)C(=O)O [L-aspartate]

remaining activity at 5000 µM [1]: 69%
Molecule: CC(=O)C(=O)O [pyruvate]

Further lines, the molecule ahead of its results:

Molecule: N[C@@H](CCC(=O)O)C(=O)O [L-glutamate]
remaining activity at 5000 µM [1]: 85%

Molecule: NC(=O)CC[C@H](N)C(=O)O [L-glutamine]
remaining activity at 5000 µM [1]: 81%

B1: SyAcnB (Synechocystis sp. PCC 6803 aconitase B) (Synechocystis sp. PCC 6803 substr. Kazusa) (protein)
chain: T1 sequence (P74582 1-868)
notes: full-length, synthetic gene in pGEX6P-1 (BamHI-XhoI), GST tag (elution with glutathione, no cleavage described), E. coli DH5alpha
Km (purified protein): 1130 ± 40 µM
kcat (purified protein): 9.12 ± 0.14 s⁻¹
Km [2]: 1540 ± 170 µM
kcat [2]: 16.67 ± 0.34 s⁻¹
